These results are taken from patent US20070128217A1 (priority 2003, published 2007).

The test system of assay [1] is antibodies in sera from SARS patients (sera 1a, 1b, 2, 6, 37, 62, London, SARS-yellow, SARS-green). It is filed as binding, human. Also on record: Binding of serum 6 to linear peptides of protein X1 of SARS-CoV Urbani / Binding of serum 37 to linear peptides of protein X1 of SARS-CoV Urbani / Binding of serum 6 to looped/cyclic peptide (PEPSCAN-ELISA) / Binding of serum 37 to looped/cyclic peptide (PEPSCAN-ELISA) / Binding of serum 37 to looped/cyclic peptides of protein X1 of SARS-CoV Urbani / Binding of serum 6 to linear peptides of protein X2 / Binding of serum 37 to linear peptides of protein X2 / Binding of serum 37 to looped/cyclic peptides of protein X2 of SARS-CoV Urbani / Binding of serum 6 to linear peptides of protein M of SARS-CoV Urbani / Binding of serum 37 to linear peptides of protein M of SARS-CoV Urbani / Binding of serum 6 to looped/cyclic peptides of protein M of SARS-CoV Urbani / Binding of serum 37 to looped/cyclic peptides of protein M of SARS-CoV Urbani / Binding of serum 6 to linear peptides of protein X3 of SARS-CoV Urbani / Binding of serum 37 to linear peptides of protein X3 of SARS-CoV Urbani / Binding of serum 37 to looped/cyclic peptides of protein X3 of SARS-CoV Urbani / Binding of serum 6 to linear peptides of protein X4 of SARS-CoV Urbani / Binding of serum 37 to linear peptides of protein X4 of SARS-CoV Urbani / Binding of serum 37 to looped/cyclic peptides of protein X4 of SARS-CoV Urbani / Binding of serum 6 to linear peptides of protein X5 of SARS-CoV Urbani / Binding of serum 37 to linear peptides of protein X5 of SARS-CoV Urbani / Binding of serum 37 to looped/cyclic peptides of protein X5 of SARS-CoV Urbani / Binding of serum 6 to linear peptides of protein N of SARS-CoV Urbani / Binding of serum 37 to linear peptides of protein N of SARS-CoV Urbani / Binding of serum 6 to linear peptide (PEPSCAN-ELISA) / Binding of serum 1a to looped/cyclic peptides of protein N of SARS-CoV Urbani / Binding of serum 1b to looped/cyclic peptides of protein N of SARS-CoV Urbani / Binding of serum 2 to looped/cyclic peptides of protein N of SARS-CoV Urbani / Binding of serum 6 to looped/cyclic peptides of protein N of SARS-CoV Urbani / Binding of serum 37 to looped/cyclic peptides of protein N of SARS-CoV Urbani / Binding of serum 62 to looped/cyclic peptides of protein N of SARS-CoV Urbani / Binding of serum London to looped/cyclic peptides of protein N of SARS-CoV Urbani / Binding of serum SARS-green to looped/cyclic peptides of protein N of SARS-CoV Urbani: unit not given here.

The test system of assay [2] is control sera (pooled serum of ten healthy LUMC hospital workers; commercial negative donor pooled serum from the Dutch bloodbank). It counts as binding, human.
In assay [3] the test system is rabbit serum obtained by immunizing a rabbit with the SARS-CoV strain Frankfurt 1. It is filed as binding. Details: Binding of a rabbit serum to linear peptides / Binding of a rabbit serum to looped peptides / Rabbit serum linear peptides / Rabbit serum looped peptides / Binding of a rabbit serum to linear peptides of protein N of SARS-CoV Urbani (Rabbit serum linear peptides) / Binding of a rabbit serum to looped/cyclic peptides of protein N of SARS-CoV Urbani (Rabbit serum looped peptides): unit not given here.

With LVTLAILTALRLCAY, in assay [1], the “Binding of serum 1a to linear peptides of protein E of SARS-CoV Urbani” value was 0.8, the “Binding of serum 1a to looped/cyclic peptides of protein E of SARS-CoV Urbani” value came to 0.6, the “Binding of serum 1b to linear peptides of protein E of SARS-CoV Urbani” value came out at 0.5 and the “Binding of serum 1b to looped/cyclic peptides of protein E of SARS-CoV Urbani” value came out at 0.5. In assay [1], the “Binding of serum 2 to linear peptides of protein E of SARS-CoV Urbani” value is on record as 0.6, the “Binding of serum 2 to looped/cyclic peptides of protein E of SARS-CoV Urbani” value is 1.0, the “Binding of serum 6 to linear peptides of protein E of SARS-CoV Urbani” value is reported as 0.7 and the “Binding of serum 6 to looped/cyclic peptides of protein E of SARS-CoV Urbani” value is recorded as 0.4. In assay [1], the “Binding of serum 37 to linear peptides of protein E of SARS-CoV Urbani” value is listed as 0.7, the “Binding of serum 37 to looped/cyclic peptides of protein E of SARS-CoV Urbani” value amounted to 0.7, the “Binding of serum 62 to linear peptides of protein E of SARS-CoV Urbani” value is listed as 0.7 and the “Binding of serum 62 to looped/cyclic peptides of protein E of SARS-CoV Urbani” value is 0.6. In assay [1], the “Binding of serum London to linear peptides of protein E of SARS-CoV Urbani” value came to 0.5, the “Binding of serum London to looped/cyclic peptides of protein E of SARS-CoV Urbani” value is listed as 0.4, the “Binding of serum SARS-green to linear peptides of protein E of SARS-CoV Urbani” value was determined as 0.3 and the “Binding of serum SARS-green to looped/cyclic peptides of protein E of SARS-CoV Urbani” value came to 0.6. Besides, in assay [1], the “Binding of serum SARS-yellow to linear peptides of protein E of SARS-CoV Urbani” value amounted to 0.1 and the “Binding of serum SARS-yellow to looped/cyclic peptides of protein E of SARS-CoV Urbani” value was determined as 0.4. Besides, in assay [2], the “Binding of Control Serum Blood-Bank to Looped peptides” value was 0.6, the “Binding of Control serum Blood-bank to linear peptides” value was 0.6, the “Binding of Control serum LUMC to linear peptides” value is 0.3 and the “Binding of Control serum LUMC to looped peptides” value is on record as 0.8. In assay [3], the “Binding of a rabbit serum to linear peptides” value is given as 0.4 and the “Binding of a rabbit serum to looped peptides” value is listed as 0.3.

Regarding AIWNLDVIISSIVRQ, in assay [1], the “Binding of serum 1a to linear peptides of protein X3 of SARS-CoV Urbani” value was found to be 0.8, the “Binding of serum 1a to looped/cyclic peptides of protein X3 of SARS-CoV Urbani” value amounted to 0.5, the “Binding of serum 1b to linear peptides of protein X3 of SARS-CoV Urbani” value was determined as 0.4 and the “Binding of serum 1b to looped/cyclic peptides of protein X3 of SARS-CoV Urbani” value is listed as 0.5. In addition, in assay [1], the “Binding of serum 2 to linear peptides of protein X3 of SARS-CoV Urbani” value amounted to 0.6, the “Binding of serum 2 to looped/cyclic peptides of protein X3 of SARS-CoV Urbani” value turned out to be 0.4, the “Binding of serum 6 to linear peptides of protein X3 of SARS-CoV Urbani” value is given as 0.5 and the “Binding of serum 6 to looped/cyclic peptides of protein X3 of SARS-CoV Urbani” value was determined as 0.4. In assay [1], the “Binding of serum 37 to linear peptides of protein X3 of SARS-CoV Urbani” value was determined as 0.6, the “Binding of serum 37 to looped/cyclic peptides of protein X3 of SARS-CoV Urbani” value was determined as 0.6, the “Binding of serum 62 to linear peptides of protein X3 of SARS-CoV Urbani” value is 0.6 and the “Binding of serum 62 to looped/cyclic peptides of protein X3 of SARS-CoV Urbani” value worked out at 0.5. In assay [1], the “Binding of serum London to linear peptides of protein X3 of SARS-CoV Urbani” value came to 0.6, the “Binding of serum London to looped/cyclic peptides of protein X3 of SARS-CoV Urbani” value was determined as 0.2, the “Binding of serum SARS-green to linear peptides of protein X3 of SARS-CoV Urbani” value worked out at 0.3 and the “Binding of serum SARS-green to looped/cyclic peptides of protein X3 of SARS-CoV Urbani” value turned out to be 0.4. Also, in assay [1], the “Binding of serum SARS-yellow to linear peptides of protein X3 of SARS-CoV Urbani” value turned out to be 0.3 and the “Binding of serum SARS-yellow to looped/cyclic peptides of protein X3 of SARS-CoV Urbani” value was found to be 0.6. In assay [2], the “Binding of Control Serum Blood-Bank to Looped peptides of the protein X3 of SARS-CoV Urbani” value is recorded as 0.8, the “Binding of Control serum Blood-bank to linear peptides of the protein X3 of SARS-CoV Urbani” value was 0.7, the “Binding of Control serum LUMC to linear peptides of the protein X3 of SARS-CoV Urbani” value came out at 0.7 and the “Binding of Control serum LUMC to looped peptides of the protein X3 of SARS-CoV Urbani” value was found to be 0.7. In addition, in assay [3], the “Rabbit serum linear peptides” value is given as 0.3 and the “Rabbit serum looped peptides” value turned out to be 0.4.

Take TGTLIVNSVLLFLAF: in assay [1], the “Binding of serum 1a to looped/cyclic peptides of protein E of SARS-CoV Urbani” value was determined as 0.4, the “Binding of serum 1b to looped/cyclic peptides of protein E of SARS-CoV Urbani” value is recorded as 0.3, the “Binding of serum 2 to looped/cyclic peptides of protein E of SARS-CoV Urbani” value worked out at 0.4 and the “Binding of serum 6 to looped/cyclic peptides of protein E of SARS-CoV Urbani” value was determined as 0.3. Also, in assay [1], the “Binding of serum 37 to looped/cyclic peptides of protein E of SARS-CoV Urbani” value is on record as 0.3, the “Binding of serum 62 to looped/cyclic peptides of protein E of SARS-CoV Urbani” value is given as 0.6, the “Binding of serum London to looped/cyclic peptides of protein E of SARS-CoV Urbani” value turned out to be 0.3 and the “Binding of serum SARS-green to looped/cyclic peptides of protein E of SARS-CoV Urbani” value is on record as 0.2. Moreover, the “Binding of serum SARS-yellow to looped/cyclic peptides of protein E of SARS-CoV Urbani” value in assay [1] stood at 0.4. Moreover, in assay [2], the “Binding of Control Serum Blood-Bank to Looped peptides” value stood at 0.4, the “Binding of Control serum Blood-bank to linear peptides” value was 0.6, the “Binding of Control serum LUMC to linear peptides” value stood at 0.3 and the “Binding of Control serum LUMC to looped peptides” value is on record as 0.5. For the same sequence, in assay [3], the “Binding of a rabbit serum to linear peptides” value is 0.5 and the “Binding of a rabbit serum to looped peptides” value was determined as 0.0.

Take LFLAFVVFLLVTLAI: in assay [1], the “Binding of serum 1a to linear peptides of protein E of SARS-CoV Urbani” value worked out at 0.9, the “Binding of serum 1a to looped/cyclic peptides of protein E of SARS-CoV Urbani” value amounted to 0.5, the “Binding of serum 1b to linear peptides of protein E of SARS-CoV Urbani” value turned out to be 0.5 and the “Binding of serum 1b to looped/cyclic peptides of protein E of SARS-CoV Urbani” value is listed as 0.5. Moreover, in assay [1], the “Binding of serum 2 to linear peptides of protein E of SARS-CoV Urbani” value was 0.9, the “Binding of serum 2 to looped/cyclic peptides of protein E of SARS-CoV Urbani” value is recorded as 0.6, the “Binding of serum 6 to linear peptides of protein E of SARS-CoV Urbani” value came out at 0.7 and the “Binding of serum 6 to looped/cyclic peptides of protein E of SARS-CoV Urbani” value worked out at 0.5. In addition, in assay [1], the “Binding of serum 37 to linear peptides of protein E of SARS-CoV Urbani” value stood at 0.7, the “Binding of serum 37 to looped/cyclic peptides of protein E of SARS-CoV Urbani” value came to 0.6, the “Binding of serum 62 to linear peptides of protein E of SARS-CoV Urbani” value came out at 0.7 and the “Binding of serum 62 to looped/cyclic peptides of protein E of SARS-CoV Urbani” value is given as 0.7. In addition, in assay [1], the “Binding of serum London to linear peptides of protein E of SARS-CoV Urbani” value was determined as 0.8, the “Binding of serum London to looped/cyclic peptides of protein E of SARS-CoV Urbani” value turned out to be 0.5, the “Binding of serum SARS-green to linear peptides of protein E of SARS-CoV Urbani” value amounted to 0.5 and the “Binding of serum SARS-green to looped/cyclic peptides of protein E of SARS-CoV Urbani” value came to 0.7. Besides, in assay [1], the “Binding of serum SARS-yellow to linear peptides of protein E of SARS-CoV Urbani” value came out at 0.2 and the “Binding of serum SARS-yellow to looped/cyclic peptides of protein E of SARS-CoV Urbani” value came out at 0.9. In addition, in assay [2], the “Binding of Control Serum Blood-Bank to Looped peptides” value stood at 0.6, the “Binding of Control serum Blood-bank to linear peptides” value is listed as 0.7, the “Binding of Control serum LUMC to linear peptides” value turned out to be 0.5 and the “Binding of Control serum LUMC to looped peptides” value is on record as 0.7. In assay [3], the “Binding of a rabbit serum to linear peptides” value is listed as 0.5 and the “Binding of a rabbit serum to looped peptides” value is reported as 0.3.
